Results as given in the RepoRT retention time repository (doi:10.1016/j.jchromb.2020.122105).

Key:
Settings in all cases: stereoisomer not certain
[1] = RP, Waters CORTECS T3, 100 × 2.1 mm, 2.7 µm, 0.2 mL/min, estimated dead time 1.1 min; A: water + 0.045% formic acid + 0.11% ammonium hydroxide, pH 7; B: methanol; gradient (min/%B) 0/5 5/5 25/95 25.1/100 35/100 35.1/5 45/5
[2] = RP, Waters ACQUITY UPLC BEH C18, 100 × 2.1 mm, 1.7 µm, 0.1 mL/min, estimated dead time 2.2 min; A: water + 0.045% formic acid + 0.11% ammonium hydroxide, pH 7; B: methanol; gradient (min/%B) 0/5 5/5 25/95 25.1/100 35/100 35.1/5 45/5
[3] = HILIC, Merck SeQuant ZIC-HILIC, 150 × 2.1 mm, 5 µm, 0.75 mL/min, estimated dead time 0.44 min; A: water + 10 mM ammonium formate, pH 6; B: 5% water + 95% acetonitrile + 10 mM ammonium formate, pH 6; gradient (min/%B) 0/95 5/95 20/57 25/57 30/95 40/95
[4] = HILIC, Waters XBridge BEH Amide, 100 × 2.1 mm, 2.5 µm, 0.5 mL/min, estimated dead time 0.44 min; A: water + 0.1% acetic acid + 10 mM ammonium acetate, pH 4; B: 5% water + 95% acetonitrile + 0.1% acetic acid + 10 mM ammonium acetate, pH 4; gradient (min/%B) 0/95 5/95 20/57 25/57 30/95 40/95
[5] = RP, Waters CORTECS T3, 100 × 2.1 mm, 2.7 µm, 0.2 mL/min, estimated dead time 1.1 min; A: water + 0.1% formic acid, pH 3; B: methanol + 0.1% formic acid, pH 3; gradient (min/%B) 0/5 5/5 25/95 25.1/100 35/100 35.1/5 45/5
[6] = HILIC, Merck SeQuant ZIC-HILIC, 150 × 2.1 mm, 5 µm, 0.75 mL/min, estimated dead time 0.44 min; A: water + 0.1% acetic acid + 10 mM ammonium acetate, pH 4; B: 5% water + 95% acetonitrile + 0.1% acetic acid + 10 mM ammonium acetate, pH 4; gradient (min/%B) 0/95 5/95 20/57 25/57 30/95 40/95
[7] = RP, Waters CORTECS T3, 100 × 2.1 mm, 2.7 µm, 0.2 mL/min, estimated dead time 1.1 min; A: water + 0.1% formic acid, pH 3; B: methanol + 0.1% formic acid, pH 3; gradient (min/%B) 0/0 1/0 6/5 30/100 35/100 35.1/0 40/0
[8] = RP, Waters CORTECS T3, 100 × 2.1 mm, 2.7 µm, 0.25 mL/min, estimated dead time 0.88 min; A: water + 0.1% formic acid, pH 3; B: methanol + 0.1% formic acid, pH 3; gradient (min/%B) 0/0 1/0 6/5 30/100 35/100 35.1/0 40/0
[9] = RP, Waters CORTECS T3, 100 × 2.1 mm, 2.7 µm, 0.3 mL/min, estimated dead time 0.73 min; A: water + 0.1% formic acid, pH 3; B: methanol + 0.1% formic acid, pH 3; gradient (min/%B) 0/5 5/5 25/95 25.1/100 35/100 35.1/5 45/5
[10] = RP, Waters ACQUITY UPLC BEH C18, 100 × 2.1 mm, 1.7 µm, 0.2 mL/min, estimated dead time 1.1 min; A: water + 0.1% formic acid, pH 3; B: methanol + 0.1% formic acid, pH 3; gradient (min/%B) 0/5 5/5 25/100 30/100 30.1/5 35/5
[11] = RP, Waters ACQUITY UPLC BEH C18, 100 × 2.1 mm, 1.7 µm, 0.1 mL/min, estimated dead time 2.2 min; A: water + 0.1% formic acid, pH 3; B: methanol + 0.1% formic acid, pH 3; gradient (min/%B) 0/5 5/5 25/100 30/100 30.1/5 35/5
[12] = RP, Waters ACQUITY UPLC BEH C18, 100 × 2.1 mm, 1.7 µm, 0.1 mL/min, estimated dead time 2.2 min; A: water + 0.1% formic acid, pH 3; B: methanol + 0.1% formic acid, pH 3; gradient (min/%B) 0/5 5/5 25/95 25.1/100 35/100 35.1/5 45/5
[13] = RP, Waters CORTECS T3, 100 × 2.1 mm, 2.7 µm, 0.3 mL/min, estimated dead time 0.73 min; A: water + 0.1% formic acid, pH 3; B: methanol + 0.1% formic acid, pH 3; gradient (min/%B) 0/0 5/0 25/100 30/100 30.1/0 35/0
[14] = RP, Waters CORTECS T3, 100 × 2.1 mm, 2.7 µm, 0.2 mL/min, estimated dead time 1.1 min; A: water + 0.1% formic acid, pH 3; B: methanol + 0.1% formic acid, pH 3; gradient (min/%B) 0/0 1/0 6/5 30/100 35/100 35.1/0 40/0; remark: listed apart in the source
[15] = RP, Thermo Scientific Hypercarb, 150 × 2.1 mm, 5 µm, 0.1 mL/min, estimated dead time 3.3 min; A: water + 0.1% formic acid, pH 3; B: methanol + 0.1% formic acid, pH 3; gradient (min/%B) 0/5 5/5 20/100 35/100 35.1/5 45/5
[16] = RP, Waters CORTECS T3, 100 × 2.1 mm, 2.7 µm, 0.3 mL/min, estimated dead time 0.73 min; A: water + 0.1% formic acid, pH 3; B: methanol + 0.1% formic acid, pH 3; gradient (min/%B) 0/0 1/0 6/5 30/100 35/100 35.1/0 40/0
[17] = RP, Waters CORTECS T3, 100 × 2.1 mm, 2.7 µm, 0.25 mL/min, estimated dead time 0.88 min; A: water + 0.1% formic acid, pH 3; B: methanol + 0.1% formic acid, pH 3; gradient (min/%B) 0/5 5/5 25/95 25.1/100 35/100 35.1/5 45/5
[18] = RP, Waters CORTECS T3, 100 × 2.1 mm, 2.7 µm, 0.3 mL/min, estimated dead time 0.73 min; A: water + 0.1% formic acid, pH 3; B: methanol + 0.1% formic acid, pH 3; gradient (min/%B) 0/5 5/5 25/100 30/100 30.1/5 35/5
[19] = RP, Waters CORTECS T3, 100 × 2.1 mm, 2.7 µm, 0.1 mL/min, estimated dead time 2.2 min; A: water + 0.1% formic acid, pH 3; B: methanol + 0.1% formic acid, pH 3; gradient (min/%B) 0/5 5/5 25/95 25.1/100 35/100 35.1/5 45/5
[20] = RP, Waters ACQUITY UPLC BEH C18, 100 × 2.1 mm, 1.7 µm, 0.2 mL/min, estimated dead time 1.1 min; A: water + 0.025% formic acid + 20 mM ammonium acetate + 0.055% ammonium hydroxide, pH 7; B: methanol; gradient (min/%B) 0/5 5/5 25/100 30/100 30.1/5 35/5
[21] = RP, Waters CORTECS T3, 100 × 2.1 mm, 2.7 µm, 0.3 mL/min, estimated dead time 0.73 min; A: water + 0.1% formic acid, pH 3; B: methanol + 0.1% formic acid, pH 3; gradient (min/%B) 0/0 5/0 25/100 30/100 30.1/0 35/0; remark: listed apart in the source
[22] = RP, Waters CORTECS T3, 100 × 2.1 mm, 2.7 µm, 0.1 mL/min, estimated dead time 2.2 min; A: water + 0.1% formic acid, pH 3; B: methanol + 0.1% formic acid, pH 3; gradient (min/%B) 0/0 1/0 6/5 30/100 35/100 35.1/0 40/0
[23] = RP, Waters CORTECS T3, 100 × 2.1 mm, 2.7 µm, 0.15 mL/min, estimated dead time 1.5 min; A: water + 0.1% formic acid, pH 3; B: methanol + 0.1% formic acid, pH 3; gradient (min/%B) 0/0 1/0 6/5 30/100 35/100 35.1/0 40/0
[24] = RP, Waters CORTECS T3, 100 × 2.1 mm, 2.7 µm, 0.3 mL/min, estimated dead time 0.73 min; A: water + 0.1% formic acid, pH 3; B: methanol + 0.1% formic acid, pH 3; gradient (min/%B) 0/0 1/0 6/5 30/100 35/100 35.1/0 40/0; remark: listed apart in the source
[25] = RP, Waters ACQUITY UPLC BEH C18, 100 × 2.1 mm, 1.7 µm, 0.2 mL/min, estimated dead time 1.1 min; A: water + 0.025% formic acid + 20 mM ammonium acetate + 0.055% ammonium hydroxide, pH 7; B: methanol; gradient (min/%B) 0/5 5/5 25/100 30/100 30.1/5 35/5; remark: listed apart in the source

| SMILES | LC retention time [3] | LC retention time [4] | LC retention time [5] | LC retention time [6] | LC retention time [12] | other results |
| --- | --- | --- | --- | --- | --- | --- |
| CCCCCCCCCCCCCCCC(=O)OCC(COP(=O)(O)OCCN)OC(=O)CCCCCCCCCCCCCCC (racemic) [1,2-DIPALMITOYL-RAC-GLYCERO-3-PHOSPHOETHANOLAMINE] | 7.77 min | 6.05 min |  |  |  | LC retention time [1]: 28.7 min; LC retention time [2]: 36.9 min |
| NCCS(=O)(=O)O [TAURINE] | 12.3 min | 11.4 min | 2.48 min | 12 min |  |  |
| Nc1ncnc2c1ncn2[C@@H]1O[C@H](CSCC[C@H]([NH3+])C(=O)[O-])[C@@H](O)[C@H]1O [S-(5'-ADENOSYL)-L-HOMOCYSTEINE] |  |  | 2.67 min | 12.3 min | 2.67 min | LC retention time [7]: 1.34 min; LC retention time [8]: 1.09 min; LC retention time [9]: 0.9 min; LC retention time [10]: 1.38 min; LC retention time [11]: 2.74 min |
| O=C(O)C1(O)CC(O)C(O)C(O)C1 (stereo not given) [QUINATE] | 12.3 min |  | 2.64 min | 12.2 min | 2.67 min | LC retention time [13]: 0.89 min; LC retention time [14]: 1.35 min; LC retention time [10]: 1.38 min |
| OCC1OC(OCC2OC(OC3(CO)OC(CO)C(O)C3O)C(O)C(O)C2O)C(O)C(O)C1O [D-(+)-RAFFINOSE] |  |  | 2.67 min |  | 2.67 min |  |
| NC(C(=O)O)C(O)C(O)C(O)CO (stereo not given) [GLUCOSAMINATE] | 14.3 min | 14.7 min | 2.45 min | 14.2 min |  | LC retention time [15]: 4.77 min |
| O=c1ccn(C2OC(COP(=O)(O)O)C(O)C2O)c(=O)[nH]1 (stereo not given) [URIDINE-5-MONOPHOSPHATE] |  | 14 min | 2.67 min | 13.6 min | 2.7 min | LC retention time [13]: 0.89 min; LC retention time [14]: 1.35 min; LC retention time [16]: 0.92 min; LC retention time [17]: 1.08 min |
| O=C([O-])[C@H](O)[C@@H](O)[C@H](O)[C@H](O)CO [D-GLUCONATE] | 13 min | 17 min | 2.58 min | 12.9 min |  |  |
| N[C@@H](CS(=O)(=O)O)C(=O)O [L-CYSTEIC ACID] | 13.4 min | 13.4 min | 2.49 min | 13.4 min |  | LC retention time [15]: 19.4 min |
| CC(=O)NC(CC(N)=O)C(=O)O [N-ALPHA-ACETYL-L-ASPARAGINE] |  | 12.1 min | 2.67 min | 11.8 min | 2.7 min | LC retention time [13]: 0.89 min; LC retention time [14]: 1.35 min; LC retention time [10]: 1.38 min; LC retention time [17]: 1.08 min |
| O=c1[nH]cnc2nc[nH]c12 [HYPOXANTHINE] | 3.94 min | 3.97 min |  |  |  | LC retention time [18]: 1.33 min; LC retention time [19]: 2.72 min; LC retention time [11]: 2.8 min; LC retention time [20]: 1.38 min |
| COc1ccc2[nH]cc(CCNC(C)=O)c2c1 [MELATONIN] |  | 0.63 min |  |  |  | LC retention time [18]: 12.8 min; LC retention time [21]: 13.6 min; LC retention time [7]: 16.2 min; LC retention time [22]: 14.4 min; LC retention time [23]: 17.5 min; LC retention time [24]: 14.8 min; LC retention time [8]: 15.4 min; LC retention time [19]: 17.7 min; LC retention time [9]: 13.1 min; LC retention time [11]: 17.6 min; LC retention time [1]: 14.5 min; LC retention time [2]: 17.8 min; LC retention time [20]: 14.4 min; LC retention time [25]: 14.4 min |
| C=CC1=C(C)C(=Cc2[nH]c(Cc3[nH]c(C=C4NC(=O)C(C)=C4C=C)c(C)c3CCC(=O)O)c(CCC(=O)O)c2C)NC1=O [BILIRUBIN] | 1.06 min |  |  | 1.32 min |  | LC retention time [1]: 24.4 min; LC retention time [2]: 26.9 min |
